{
  "source": "paper PMC6094102",
  "about": "(Proceedings of the National Academy of Sciences of the …, 2018)",
  "key": {"RPMI8226.BR cells": {"tested_on": "RPMI8226.BR cells", "assay": "Cell viability of bortezomib-resistant myeloma cells", "type": "cell-based"}, "MM.1S.BR cells": {"tested_on": "MM.1S.BR cells", "assay": "Cell viability of bortezomib-resistant myeloma cells", "type": "cell-based"}, "DYRK2 [1]": {"target": "T1, DYRK2 (Homo sapiens, UniProt Q92630)", "T1 sequence (Q92630 1-601)": "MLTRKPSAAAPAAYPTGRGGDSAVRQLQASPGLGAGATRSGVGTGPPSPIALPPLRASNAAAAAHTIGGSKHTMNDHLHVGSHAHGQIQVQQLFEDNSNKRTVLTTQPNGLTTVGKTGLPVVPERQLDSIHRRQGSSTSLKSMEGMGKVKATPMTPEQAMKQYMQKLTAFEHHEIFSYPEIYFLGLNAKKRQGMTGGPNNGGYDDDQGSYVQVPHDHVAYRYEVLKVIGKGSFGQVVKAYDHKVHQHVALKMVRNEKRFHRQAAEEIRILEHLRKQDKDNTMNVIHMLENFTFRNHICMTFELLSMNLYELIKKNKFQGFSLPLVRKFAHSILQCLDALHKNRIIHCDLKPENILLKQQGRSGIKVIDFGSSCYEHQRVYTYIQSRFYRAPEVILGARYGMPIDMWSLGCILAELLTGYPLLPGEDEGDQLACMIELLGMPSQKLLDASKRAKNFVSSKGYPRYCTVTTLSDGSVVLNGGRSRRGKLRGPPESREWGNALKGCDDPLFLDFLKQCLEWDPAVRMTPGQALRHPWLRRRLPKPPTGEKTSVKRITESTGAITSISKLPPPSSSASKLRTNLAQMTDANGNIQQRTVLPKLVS", "assay": "DYRK2 kinase assay, IC50 determination", "type": "biochemical", "details": "0.025 mM, 0.1 mM or 2 mM ATP"}, "GSK3β [2]": {"target": "T2, GSK3β (Homo sapiens, UniProt P49841)", "T2 sequence (P49841 whole entry)": "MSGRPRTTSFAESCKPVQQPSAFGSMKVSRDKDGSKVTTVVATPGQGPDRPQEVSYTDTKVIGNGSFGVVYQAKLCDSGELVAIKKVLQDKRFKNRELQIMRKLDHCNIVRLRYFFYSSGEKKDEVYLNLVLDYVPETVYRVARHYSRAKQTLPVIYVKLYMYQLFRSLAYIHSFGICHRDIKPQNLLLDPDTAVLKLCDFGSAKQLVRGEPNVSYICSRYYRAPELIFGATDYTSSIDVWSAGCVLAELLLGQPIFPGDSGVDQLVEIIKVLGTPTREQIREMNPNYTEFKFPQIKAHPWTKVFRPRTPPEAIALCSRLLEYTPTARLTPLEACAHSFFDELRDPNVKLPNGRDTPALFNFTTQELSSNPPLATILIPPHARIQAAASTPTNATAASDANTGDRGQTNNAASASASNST", "assay": "GSK3β kinase assay, IC50 determination", "type": "biochemical"}, "DYRK2 [3]": {"target": "T1, DYRK2", "assay": "pT25 RPT3 phosphorylation in HEK293T cells stably expressing FLAG-DYRK2", "type": "cell-based"}, "[4]": {"tested_on": "26S proteasome in MDA-MB-231 cells", "assay": "Proteasome activity in total cell lysates, Suc-LLVY-AMC", "type": "cell-based", "details": "1 h"}, "[5]": {"tested_on": "26S proteasome in HaCaT cells", "assay": "Proteasome activity in total cell lysates, Suc-LLVY-AMC", "type": "cell-based", "details": "10 μM, 1 h"}, "[6]": {"tested_on": "UBL-YFP-PEST in HEK293T cells", "assay": "UBL-YFP-PEST reporter degradation", "type": "cell-based", "details": "10 μM, 1 h pretreatment, CHX 2 h"}, "26S proteasome": {"tested_on": "26S proteasome", "assay": "Affinity-purified 26S proteasome, bodipy-casein degradation in vitro", "type": "biochemical, human", "details": "10 μM"}, "[7]": {"tested_on": "multiple myeloma cell lines", "assay": "Caspase 3/7 activity", "type": "cell-based", "details": "multiple myeloma cell lysates, 16 h"}, "MDA-MB-231 cells [8]": {"tested_on": "MDA-MB-231 cells", "assay": "Cell proliferation by cell counting", "type": "cell-based", "details": "3 µM"}, "5TGM1-GFP cells": {"tested_on": "5TGM1-GFP cells", "assay": "Cell proliferation by cell counting", "type": "cell-based", "details": "1 µM, 5 days"}, "MDA-MB-231 cells [9]": {"tested_on": "MDA-MB-231 cells", "assay": "Matrigel transwell invasion assay", "type": "cell-based", "details": "MDA-MB-231, 5 μM, 24 h"}, "Hs578T cells": {"tested_on": "Hs578T cells", "assay": "Matrigel transwell invasion assay", "type": "cell-based", "details": "5 μM, 24 h"}, "[10]": {"tested_on": "MDA-MB-231 xenograft tumors", "assay": "MDA-MB-231 tumor xenograft in NSG mice", "type": "in vivo"}, "GSK3β [11]": {"target": "T2, GSK3β", "details": "read-out: IC50 GSK3β; cited from earlier work"}, "DYRK3": {"target": "T3, DYRK3 (Homo sapiens, UniProt O43781)", "T3 sequence (O43781 1-588)": "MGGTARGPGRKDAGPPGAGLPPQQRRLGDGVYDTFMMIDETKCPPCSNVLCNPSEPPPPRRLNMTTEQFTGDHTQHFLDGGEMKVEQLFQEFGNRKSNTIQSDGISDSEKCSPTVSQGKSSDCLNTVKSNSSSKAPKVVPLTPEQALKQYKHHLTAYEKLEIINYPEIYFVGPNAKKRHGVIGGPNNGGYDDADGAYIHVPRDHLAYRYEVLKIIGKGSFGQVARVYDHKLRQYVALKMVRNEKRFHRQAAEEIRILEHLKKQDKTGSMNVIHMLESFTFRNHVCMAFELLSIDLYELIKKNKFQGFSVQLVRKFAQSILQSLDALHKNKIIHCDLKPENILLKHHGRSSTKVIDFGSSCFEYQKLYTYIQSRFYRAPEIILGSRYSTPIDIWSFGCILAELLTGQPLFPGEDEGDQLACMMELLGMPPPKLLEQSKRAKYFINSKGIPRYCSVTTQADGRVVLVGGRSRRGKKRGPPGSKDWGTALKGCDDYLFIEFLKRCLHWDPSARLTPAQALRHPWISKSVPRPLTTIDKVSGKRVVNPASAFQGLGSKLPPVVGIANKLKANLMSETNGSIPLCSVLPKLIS", "assay": "DYRK3 kinase assay, IC50 determination"}},
  "note": "Where two headings read alike, the source gives them in different places.",
  "data": [
    {"smiles": "CC(C)C[C@H](NC(=O)[C@H](Cc1ccccc1)NC(=O)c1cnccn1)B(O)O", "note": "[bortezomib]", "values": [
      {"measurement": "resistance to bortezomib relative to bortezomib-sensitive cells", "setting": "RPMI8226.BR cells; RPMI8226.BR vs RPMI8226", "value": "20- to 100 fold"},
      {"measurement": "resistance to bortezomib relative to bortezomib-sensitive cells", "setting": "MM.1S.BR cells; MM.1S.BR vs MM.1S", "value": "20- to 100 fold"}
    ]},
    {"smiles": "COc1cc(/C=C/C(=O)CC(=O)/C=C/c2ccc(O)c(OC)c2)ccc1O", "note": "[curcumin]", "values": [
      {"measurement": "effect of higher concentrations of ATP on the IC50 for DYRK2", "setting": "DYRK2 [1]", "value": "modest effect"},
      {"measurement": "IC50", "setting": "GSK3β [2]", "value": "> 3000", "unit": "nM"},
      {"measurement": "concentration at which curcumin inhibits DYRK2 in cells", "setting": "DYRK2 [3]", "value": "1 to 10", "unit": "µM"},
      {"measurement": "inhibitor concentration of maximal suppression of pT25 RPT3 phosphorylation", "setting": "DYRK2 [3]; 0.5 h", "value": "3–10 μM"},
      {"measurement": "proteasome activity with curcumin treatment in DYRK2-null cells", "setting": "[4]; DYRK2-null MDA-MB-231, 10 μM", "value": "no further decrease of proteasome activity"},
      {"measurement": "decrease of proteasome activity toward Suc-LLVY-AMC", "setting": "[4]; MDA-MB-231 parental, 10 μM", "value": "25–40%"},
      {"measurement": "proteasome activity with curcumin treatment in DYRK2-null cells", "setting": "[5]; DYRK2-null HaCaT", "value": "no further decrease of proteasome activity"},
      {"measurement": "decrease of proteasome activity toward Suc-LLVY-AMC", "setting": "[5]; HaCaT parental", "value": "25–40%"},
      {"measurement": "UBL-YFP-PEST reporter protein degradation", "setting": "[6]", "value": "stabilized"},
      {"measurement": "effect on activity of affinity-purified proteasome to degrade BODIPY-casein", "setting": "26S proteasome", "value": "no significant effect"},
      {"measurement": "cytotoxicity versus bortezomib-sensitive WT counterpart", "setting": "RPMI8226.BR cells; RPMI8226.BR, 10 μM, 24 h", "value": "comparable cytotoxicity"},
      {"measurement": "cytotoxicity versus bortezomib-sensitive WT counterpart", "setting": "MM.1S.BR cells; MM.1S.BR, 10 μM, 24 h", "value": "comparable cytotoxicity"},
      {"measurement": "caspase3/7 activity", "setting": "[7]", "value": "significant increase"},
      {"measurement": "cell proliferation in DYRK2 KO cells", "setting": "MDA-MB-231 cells [8]; MDA-MB-231 DYRK2 KO", "value": "did not exhibit a further decrease in cell proliferation"},
      {"measurement": "rate of cell proliferation compared with DMSO-treated controls", "setting": "MDA-MB-231 cells [8]; MDA-MB-231 WT, 5 days", "value": "markedly slower rate of cell proliferation"},
      {"measurement": "rate of cell proliferation compared with DMSO-treated controls", "setting": "5TGM1-GFP cells", "value": "markedly slower rate of cell proliferation"},
      {"measurement": "cell invasion, 3D matrigel invasion assay", "setting": "MDA-MB-231 cells [9]", "value": "largely blocked"},
      {"measurement": "cell invasion, 3D matrigel invasion assay", "setting": "Hs578T cells", "value": "largely blocked"},
      {"measurement": "Ki-67 staining in xenograft tumors", "setting": "[10]; 300 mg/kg i.p.", "value": "greatly attenuated"},
      {"measurement": "tumor burden", "setting": "[10]; 300 mg/kg i.p. every alternate day, after 2 wk of treatment, NSG mice", "value": "significantly reduced tumor burden"},
      {"measurement": "reduction of proteasome activity in curcumin-treated mouse tumors", "setting": "[10]; 300 mg/kg i.p., whole-tumor lysates, Suc-LLVY-AMC", "value": 30, "unit": "%"},
      {"measurement": "IC50", "setting": "GSK3β [11]", "value": 66, "unit": "nM"},
      {"measurement": "IC50", "setting": "DYRK3", "value": 20, "unit": "nM"}
    ]}
  ]
}
